From patent US20240025899A1, “TRIHETEROCYCLIC DERIVATIVE, AND PHARMACEUTICAL COMPOSITION AND APPLICATION THEREOF” (SHANGHAI DE NOVO PHARMATECH CO., LTD., priority 2020, published 2024)
Structures can show the parent of a compound that is named as a salt.

Columns and labels:
[1] = test system: OCI-LY19 human B-cell lymphoma; assay: In vivo drug efficacy, OCI-LY19 human B-cell lymphoma mouse subcutaneous xenograft tumor model; settings: Group 2, 20 mg/kg p.o. once a day
Protocol: Cell culture: Human B-cell lymphoma OCI-LY19 cells were maintained as a monolayer in MEM-α medium containing 10% fetal bovine serum in a constant temperature incubator at 37° C. with 5% CO2. Tumor cells were subcultured twice a week. Cells in exponential growth phase were harvested and counted for inoculation.
Experimental animals: BALB/c nude mice, 6-8 weeks old, 19-22 g, purchased from Beijing Vital River Laboratory Animal Technology Co., Ltd.
For Vehicle, positive control (AZD6738, CAS number: 1352226-88-0) and compound 2, a total of 6 experimental groups were set up, as shown in Table 5 below:
Experimental method: The OCI-LY19 cell line (3.0×10^6 cells/mouse) was inoculated subcutaneously on the right back of the experimental mouse, and the inoculation volume of each mouse was 0.1 mL, and the growth of tumors was observed regularly, and until the tumor grew to about 100 mm^3, the mice were randomly divided into groups according to the tumor size and body weight, and administered according to the administration plan shown in Table 5, and the mouse body weight and tumor size were measured twice a week during the whole experiment.
tumor volume (mm^3)=0.5×(tumor long diameter×tumor short diameter^2). Tumor size calculation formula: […]

ATR/ATRIP kinase = ATR/ATRIP kinase (Homo sapiens (Human), UniProt Q13535); assay: ATR enzyme assay (HTRF, phosphorylation of substrate protein P53); type: biochemical; settings: substrate P53, TR-FRET
Sequence of ATR/ATRIP kinase (Q13535 whole entry): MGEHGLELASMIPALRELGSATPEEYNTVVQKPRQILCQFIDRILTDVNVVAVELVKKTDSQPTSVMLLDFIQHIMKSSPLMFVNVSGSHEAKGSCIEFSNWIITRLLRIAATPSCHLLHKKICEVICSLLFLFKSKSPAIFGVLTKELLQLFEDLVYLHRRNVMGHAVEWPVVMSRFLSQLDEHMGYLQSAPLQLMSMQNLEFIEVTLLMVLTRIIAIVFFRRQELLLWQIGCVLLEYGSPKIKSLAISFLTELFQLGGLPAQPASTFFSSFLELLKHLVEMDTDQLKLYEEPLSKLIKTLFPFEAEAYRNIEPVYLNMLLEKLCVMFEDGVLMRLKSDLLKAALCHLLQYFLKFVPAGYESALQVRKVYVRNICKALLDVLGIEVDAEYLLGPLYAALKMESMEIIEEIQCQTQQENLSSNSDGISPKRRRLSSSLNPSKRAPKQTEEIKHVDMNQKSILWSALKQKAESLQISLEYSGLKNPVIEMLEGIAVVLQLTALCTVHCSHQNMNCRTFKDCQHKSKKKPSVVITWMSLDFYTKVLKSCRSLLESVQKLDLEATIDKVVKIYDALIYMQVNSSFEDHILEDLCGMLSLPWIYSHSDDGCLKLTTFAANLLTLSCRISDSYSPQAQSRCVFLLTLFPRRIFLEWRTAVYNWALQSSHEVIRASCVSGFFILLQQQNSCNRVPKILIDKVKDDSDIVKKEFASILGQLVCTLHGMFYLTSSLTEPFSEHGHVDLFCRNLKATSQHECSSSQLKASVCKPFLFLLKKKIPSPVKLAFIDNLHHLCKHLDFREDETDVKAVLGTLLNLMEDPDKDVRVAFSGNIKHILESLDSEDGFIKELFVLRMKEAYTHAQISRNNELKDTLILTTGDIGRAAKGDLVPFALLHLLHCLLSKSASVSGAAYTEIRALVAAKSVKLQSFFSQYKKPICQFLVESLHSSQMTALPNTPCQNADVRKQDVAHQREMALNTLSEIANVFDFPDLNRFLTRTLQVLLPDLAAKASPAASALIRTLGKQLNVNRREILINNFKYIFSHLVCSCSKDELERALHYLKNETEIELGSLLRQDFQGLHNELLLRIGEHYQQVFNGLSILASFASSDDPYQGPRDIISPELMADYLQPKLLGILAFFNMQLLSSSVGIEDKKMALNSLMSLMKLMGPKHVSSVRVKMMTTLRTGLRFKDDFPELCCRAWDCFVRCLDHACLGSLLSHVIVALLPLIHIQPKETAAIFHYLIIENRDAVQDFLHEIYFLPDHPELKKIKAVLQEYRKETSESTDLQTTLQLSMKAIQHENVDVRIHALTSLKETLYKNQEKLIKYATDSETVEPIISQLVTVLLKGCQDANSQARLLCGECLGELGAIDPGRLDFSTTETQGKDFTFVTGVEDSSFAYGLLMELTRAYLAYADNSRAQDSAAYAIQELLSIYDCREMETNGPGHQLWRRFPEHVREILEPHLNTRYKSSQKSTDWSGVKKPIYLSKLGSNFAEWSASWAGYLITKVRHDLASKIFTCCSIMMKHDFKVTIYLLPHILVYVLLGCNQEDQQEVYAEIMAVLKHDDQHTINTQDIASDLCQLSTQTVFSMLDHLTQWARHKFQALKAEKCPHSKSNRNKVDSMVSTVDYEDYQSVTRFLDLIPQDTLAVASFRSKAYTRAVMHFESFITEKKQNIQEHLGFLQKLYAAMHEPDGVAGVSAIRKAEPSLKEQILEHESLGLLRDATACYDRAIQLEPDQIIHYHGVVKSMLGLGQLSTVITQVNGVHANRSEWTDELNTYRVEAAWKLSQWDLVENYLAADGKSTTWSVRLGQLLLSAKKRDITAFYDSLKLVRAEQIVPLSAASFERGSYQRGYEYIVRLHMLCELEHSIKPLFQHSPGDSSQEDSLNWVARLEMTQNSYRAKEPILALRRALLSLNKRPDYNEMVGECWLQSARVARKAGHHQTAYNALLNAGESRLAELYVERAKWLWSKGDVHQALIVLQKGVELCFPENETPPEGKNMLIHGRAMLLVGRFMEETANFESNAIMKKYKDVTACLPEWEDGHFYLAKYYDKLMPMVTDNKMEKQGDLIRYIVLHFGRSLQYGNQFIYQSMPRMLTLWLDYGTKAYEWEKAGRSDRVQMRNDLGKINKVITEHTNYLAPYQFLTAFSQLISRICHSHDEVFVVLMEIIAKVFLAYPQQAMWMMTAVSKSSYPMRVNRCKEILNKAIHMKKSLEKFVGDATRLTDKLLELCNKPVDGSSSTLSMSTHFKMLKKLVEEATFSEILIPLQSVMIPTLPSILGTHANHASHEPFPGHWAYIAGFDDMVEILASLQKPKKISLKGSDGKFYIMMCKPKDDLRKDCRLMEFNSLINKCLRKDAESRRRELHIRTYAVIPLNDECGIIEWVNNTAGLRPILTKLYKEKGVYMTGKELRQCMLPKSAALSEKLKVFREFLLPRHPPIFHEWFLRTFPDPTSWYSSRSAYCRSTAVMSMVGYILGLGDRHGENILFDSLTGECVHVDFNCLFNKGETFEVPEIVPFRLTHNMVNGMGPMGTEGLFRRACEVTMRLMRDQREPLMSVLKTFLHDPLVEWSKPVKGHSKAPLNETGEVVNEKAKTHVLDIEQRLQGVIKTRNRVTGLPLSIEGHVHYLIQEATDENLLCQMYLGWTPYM
Sequence of ATR/ATRIP kinase (Q8WXE1 whole entry partner): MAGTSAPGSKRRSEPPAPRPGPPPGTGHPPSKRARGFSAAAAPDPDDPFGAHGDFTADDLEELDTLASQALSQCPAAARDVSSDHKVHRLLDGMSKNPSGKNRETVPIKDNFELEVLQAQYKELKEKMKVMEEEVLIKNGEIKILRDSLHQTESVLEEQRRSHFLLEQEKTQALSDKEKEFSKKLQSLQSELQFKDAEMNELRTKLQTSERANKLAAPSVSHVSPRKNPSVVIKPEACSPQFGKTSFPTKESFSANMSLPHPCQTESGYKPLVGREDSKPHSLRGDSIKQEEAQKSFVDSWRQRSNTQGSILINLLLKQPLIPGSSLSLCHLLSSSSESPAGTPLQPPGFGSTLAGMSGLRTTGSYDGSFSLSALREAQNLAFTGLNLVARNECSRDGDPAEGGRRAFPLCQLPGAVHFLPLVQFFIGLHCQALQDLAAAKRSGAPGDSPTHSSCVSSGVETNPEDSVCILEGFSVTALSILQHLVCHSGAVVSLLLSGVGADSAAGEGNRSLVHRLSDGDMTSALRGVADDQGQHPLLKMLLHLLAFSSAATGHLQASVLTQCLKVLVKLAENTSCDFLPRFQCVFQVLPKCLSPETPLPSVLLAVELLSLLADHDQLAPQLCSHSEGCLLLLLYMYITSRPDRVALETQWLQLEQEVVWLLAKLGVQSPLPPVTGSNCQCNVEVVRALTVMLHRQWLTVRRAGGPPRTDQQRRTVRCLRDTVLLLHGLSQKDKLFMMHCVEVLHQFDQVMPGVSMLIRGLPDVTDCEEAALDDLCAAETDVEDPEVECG
Protocol: In this experiment, the phosphorylation level of substrate protein P53 (Eurofins, 14-952) was detected by HTRF technology to measure the activity of ATR/ATRIP (Eurofins, 14-953) kinase. Reaction buffer (25 mM HEPES pH 8.0, 0.01% Brij-35, 1% Glycerol, 5 mM DTT, 1 mg/mL BSA), termination buffer (12.5 mM HEPES pH 8.0, 0.005% Brij-35, 0.5% Glycerol, 250 mM EDTA) and assay buffer (50 mM HEPES pH 7.0, 150 mM NaCl, 267 mM KF, 0.1% sodium cholate, 0.01% Tween 20) were prepared in advance. ATR/ATRIP was diluted with reaction buffer to a working solution of 2 ng/μL, and the substrate protein P53 was diluted with reaction buffer to a working solution of 80 nM, and 4 nM of ATP (Sigma, A2383) working solution (containing 40 mM MnCl2) was prepared with reaction buffer. The compound was 3-fold diluted with DMSO, then diluted with reaction buffer into a working solution, then added to a 384-well plate at 2.5 μL/well, and centrifuged at 1500 rpm for 40 s. Then 2.5 μL of ATR/ATRIP working solution, P53 working solution and ATP working solution were added into the 384-well plate, centrifuged at 1500 rpm for 40 s and reacted at room temperature for 30 minutes. After the reaction was completed, 5 μL of termination buffer was added to each well, and centrifuged at 1500 rpm for 40 s. Antibody working solution containing 0.083 μg/mL anti-phospho-p53 (Ser15)-K (CisBio, cat. 61P08KAE) and 5 μg/mL anti-GST-d2 (CisBio, cat. 61GSTDLA) was prepared with assay buffer and added to the 384-well plate at 5 μL/well, then centrifuged at 1500 rpm for 40 s and reacted overnight at room temperature. Microplate reader (Tecan, Infinite M1000 Pro) was used to detect TR-FRET, and the data were analyzed with Graphpad software, and the four-parameter equation was used to fit the curve and calculate the IC50 value of the inhibitor (Table 1).

[2] = test system: LOVO human colon cancer cell line; assay: Cell proliferation assay (Cell titer glo); type: cell-based; settings: LOVO cells, 72 hours
Protocol: In the present disclosure, cell assays were used to evaluate the biological activity of compounds. LOVO (Nanjing Cobioer), a human colon cancer cell line, was cultured in a Dulbecco's Modified Eagle's medium 96-well plate, supplemented with 10% fetal bovine serum and 1% P/S, and the culture environment was 37° C. and 5% CO2. Compound concentrations were ranged from 4.5 nM to 30 μM. The stock solution of the test compound was dissolved in DMSO and added to the medium at the indicated concentration, and incubated for 72 hours. Negative control cells were treated with vehicle only. In some experiments, known ATR inhibitors were added as positive controls. Cell viability was evaluated using the Cell titer glo kit (CTG, Promega) under the instructions of the product specification. The data were analyzed using Graphpad software, and IC50 values and compound fitting curves were obtained (Table 2).

SMILES | IC50 (ATR/ATRIP kinase) [µM] | IC50 [2] [µM] | further results
C[C@@H]1COCCN1c1cc(C2([S@](C)(=N)=O)CC2)nc(-c2cc[nH]c3nccc2-3)n1 [AZD6738, reference compound] |  |  | T/C (%) [1]: 31.2%; TGI (%) [1]: 72.1%; Tumor volume (10 days, mm^3) ([1]; 10 days): 108.23 ± 4.67 mm^3; Tumor volume (24 days, mm^3) ([1]; 24 days): 738.65 ± 257.29 mm^3
C[C@@H]1COCCN1c1nc2c(cnn2-c2cc[nH]n2)c2c1CCN2S(=O)(=O)N(C)C [Compound 4, (R)—N,N-dimethyl-4-(3-methylmorpholino)-6-(1H-pyrazol-3-yl)-2,3-dihydropyrazolo[3,4-b]pyrrolo[2,3-d]pyridine-1(6H)-sulfonamide trifluoroacetate] | 0.0018 |  | 
C[C@@H]1COCCN1c1nc2c(cnn2-c2cc[nH]n2)c2c1CCN2S(N)(=O)=O [Compound 5, (R)-4-(3-methylmorpholine)-6-(1H-pyrazol-3-yl)-2,3-dihydropyrazolo[3,4-b]pyrrolo[2,3-d]pyridine-1(6H)-sulfonamide] |  | 0.262 | 
C[C@@H]1COCCN1c1nc2c(cnn2-c2cc[nH]n2)c2c1CCN2S(=O)(=O)C(F)(F)F [Compound 6, (R)-4-(6-(1H-pyrazol-3-yl)-1-((trifluoromethyl)sulfonyl)-1,2,3,6-tetrahydropyrazolo[3,4-b]pyrrolo[2,3-d]pyridin-4-yl)-3-methylmorpholine trifluoroacetate] | 0.0048 | 0.0796 | 
C[C@@H]1COCCN1c1nc2c(c(C#N)nn2-c2cc[nH]n2)c2c1CCN2S(C)(=O)=O [Compound 7, (R)-4-(3-methylmorpholinyl)-1-(methylsulfonyl)-6-(1H-pyrazol-3-yl)-1,2,3,6-tetrahydropyrazolo[3,4-b]pyrrolo[2,3-d]pyridine-8-carbonitrile] | 0.046 | 0.406 | 
C[C@@H]1COCCN1c1nc2c(-c3cc[nH]n3)nccc2c2c1ccn2S(C)(=O)=O [Compound 8, (R)-3-methyl-4-(1-(methylsulfonyl)-6-(1H-pyrazol-3-yl)-1H-pyrrolo[3,2-c][1,7]naphthyridin-4-yl)morpholine] | 0.04 | 0.0323 | 
C[C@@H]1COCCN1c1nc2c(cnn2-c2cc[nH]n2)c2c1CCN2C1CC1 [Compound 11, (R)-4-(1-cyclopropyl-6-(1H-pyrazol-3-yl)-1,2,3,6-tetrahydropyrazolo[3,4-b]pyrrolo[2,3-d]pyridin-4-yl)-3-methylmorpholine] | 0.0059 | 0.072 | 
C[C@@H]1COCCN1c1nc2c(cnn2-c2cc[nH]n2)c2c1CCN2C [Compound 12, (R)-3-methyl-4-(1-methyl-6-(1H-pyrazol-3-yl)-tetrahydropyrazolo[3,4-b]pyrrolo[2,3-d]pyridin-4-yl)morpholine] |  | 0.0937 | 
C[C@@H]1COCCN1c1nc2c(cnn2-c2cc[nH]n2)c2c1CCN2c1cccnc1 [Compound 13, (R)-4-(6-(1H-pyrazol-3-yl)-1-(pyridin-3-yl)-1,2,3,6-tetrahydropyrazolo[3,4-b]pyrrolo[2,3-d]pyridin-4-yl)-3-methylmorpholine trifluoroacetate] | 0.0075 |  | 
